Tested on: spontaneously hypertensive rats
Assay: Antihypertensive action (systolic blood pressure, caudal artery) in male spontaneously hypertensive rats
Format: in vivo, rat
Conditions: 10 mg/kg oral; for Change in blood pressure 1 hr. after treatment / Change in blood pressure 5 hrs. after treatment: after minus before medication, * P < 0.05 vs control; for Duration of antihypertensive effect: measured 1, 5, 8 and 24 hours after administration
Description: Male spontaneously hypertensive rats aged 10 to 11 weeks were used (in groups of 3 to 6 individuals). […] Each test compound was suspended in a 5% solution of gum arabic and orally administered. The dosage was 10 mg/kg for all compounds. Animals in a control group was given the above solution of gum arabic only.

## 2-[4-(4-fluorophenyl)-1-piperazinyl]ethyl methyl 4-(3-chlorophenyl)-2,6-dimethyl-1,4-dihydropyridine-3,5-dicarboxylate [Example 42]
  Change in blood pressure 1 hr. after treatment: -25 mmHg
  Change in blood pressure 5 hrs. after treatment: -35 mmHg
  Duration of antihypertensive effect: 8 to 24 h

## CCOC(=O)C1=C(C)NC(C)=C(C(=O)OCCN2CCN(C(c3ccccc3)c3ccccc3)CC2)C1c1cccc([N+](=O)[O-])c1 (stereo not drawn) [Example 2, 2-(4-benzhydryl-1-piperazinyl)ethyl ethyl 2,6-dimethyl-4-(3-nitrophenyl)-1,4-dihydropyridine-3,5-dicarboxylate]
  Change in blood pressure 1 hr. after treatment: -99 mmHg
  Change in blood pressure 5 hrs. after treatment: -101 mmHg
  Duration of antihypertensive effect: 8 to 24 h

## CCOC(=O)C1=C(C)NC(C)=C(C(=O)OCCN2CCN(C(c3ccccc3)c3ccccc3)CC2)C1c1cccc(Cl)c1Cl (stereo not drawn) [Example 7, 2-(4-benzhydryl-1-piperazinyl)ethyl ethyl 4-(2,3-dichlorophenyl)-2,6-dimethyl-1,4-dihydropyridine-3,5-dicarboxylate]
  Change in blood pressure 1 hr. after treatment: -59 mmHg
  Change in blood pressure 5 hrs. after treatment: -79 mmHg
  Duration of antihypertensive effect: > 24 h

## COC(=O)C1=C(C)NC(C)=C(C(=O)OCCN2CCN(C(c3ccc(C)cc3)c3ccc(C)cc3)CC2)C1c1cccc([N+](=O)[O-])c1 (stereo not drawn) [Example 9, 2-[4-(4,4'-dimethylbenzhydryl)-1-piperazinyl]ethyl methyl 2,6-dimethyl-4-(3-nitrophenyl)-1,4-dihydropyridine-3,5-dicarboxylate]
  Change in blood pressure 1 hr. after treatment: -96 mmHg
  Change in blood pressure 5 hrs. after treatment: -98 mmHg
  Duration of antihypertensive effect: > 24 h

## COC(=O)C1=C(C)NC(C)=C(C(=O)OCCN2CCN(C(c3ccc(Cl)cc3)c3ccc(Cl)cc3)CC2)C1c1cccc([N+](=O)[O-])c1 (stereo not drawn) [Example 12, 2-[4-(4,4'-dichlorobenzhydryl)-1-piperazinyl]ethyl methyl 2,6-dimethyl-4-(3-nitrophenyl)-1,4-dihydropyridine-3,5-dicarboxylate]
  Change in blood pressure 1 hr. after treatment: -85 mmHg
  Change in blood pressure 5 hrs. after treatment: -87 mmHg
  Duration of antihypertensive effect: > 24 h

## COC(=O)C1=C(C)NC(C)=C(C(=O)OCCN2CCN(C(c3ccc(F)cc3)c3ccc(F)cc3)CC2)C1c1cccc(Cl)c1Cl (stereo not drawn) [Example 13, 2-[4-(4,4'-difluorobenzhydryl)-1-piperazinyl]ethyl methyl 4-(2,3-dichlorophenyl)-2,6-dimethyl-1,4-dihydropyridine-3,5-dicarboxylate]
  Change in blood pressure 1 hr. after treatment: -34 mmHg
  Change in blood pressure 5 hrs. after treatment: -31 mmHg
  Duration of antihypertensive effect: 8 to 24 h

## COC(=O)C1=C(C)NC(C)=C(C(=O)OCCN2CCN(c3ccc(F)cc3)CC2)C1c1cccc([N+](=O)[O-])c1.Cl (stereo not drawn) [Example 16, 2-[4-(4-fluorophenyl)-1-piperazinyl]ethyl methyl 2,6-dimethyl-4-(3-nitrophenyl)-1,4-dihydropyridine-3,5-dicarboxylate hydrochloride]
  Change in blood pressure 1 hr. after treatment: -51 mmHg
  Change in blood pressure 5 hrs. after treatment: -45 mmHg
  Duration of antihypertensive effect: 8 to 24 h

## COC(=O)C1=C(C)NC(C)=C(C(=O)OCCN2CCN(c3cccc(Cl)c3)CC2)C1c1cccc([N+](=O)[O-])c1 (stereo not drawn) [Example 17, 2-[4-(3-chlorophenyl)-1-piperazinyl]ethyl methyl 2,6-dimethyl-4-(3-nitrophenyl)-1,4-dihydropyridine-3,5-dicarboxylate]
  Change in blood pressure 1 hr. after treatment: -77 mmHg
  Change in blood pressure 5 hrs. after treatment: -46 mmHg
  Duration of antihypertensive effect: 8 to 24 h

## CCOC(=O)C1=C(C)NC(C)=C(C(=O)OCCN2CCN(C(c3ccc(C)cc3)c3ccc(C)cc3)CC2)C1c1cccc(Cl)c1Cl (stereo not drawn) [Example 24, 2-[4-(4,4'-dimethylbenzhydryl)-1-piperazinyl]ethyl ethyl 4-(2,3-dichlorophenyl)-2,6-dimethyl-1,4-dihydropyridine-3,5-dicarboxylate]
  Change in blood pressure 1 hr. after treatment: -49 mmHg
  Change in blood pressure 5 hrs. after treatment: -30 mmHg
  Duration of antihypertensive effect: ca. 8 hrs.

## CCOC(=O)C1=C(C)NC(C)=C(C(=O)OCCN2CCN(C(c3ccccc3)c3ccccc3)CC2)C1c1cccc(Cl)c1 (stereo not drawn) [Example 28, 2-(4-benzhydryl-1-piperazinyl)ethyl ethyl 4-(3-chlorophenyl)-2,6-dimethyl-1,4-dihydropyridine-3,5-dicarboxylate]
  Change in blood pressure 1 hr. after treatment: -93 mmHg
  Change in blood pressure 5 hrs. after treatment: -75 mmHg
  Duration of antihypertensive effect: 8 to 24 h

## COCCOC(=O)C1=C(C)NC(C)=C(C(=O)OCCN2CCN(C(c3ccccc3)c3ccccc3)CC2)C1c1cccc([N+](=O)[O-])c1 (stereo not drawn) [Example 30, 2-(4-benzhydryl-1-piperazinyl)ethyl 2-methoxyethyl 2,6-dimethyl-4-(3-nitrophenyl)-1,4-dihydropyridine-3,5-dicarboxylate]
  Change in blood pressure 1 hr. after treatment: -48 mmHg
  Change in blood pressure 5 hrs. after treatment: -31 mmHg
  Duration of antihypertensive effect: 8 to 24 h

## CCOC(=O)C1=C(C)NC(C)=C(C(=O)OCCN2CCN(C(c3ccc(C)cc3)c3ccc(C)cc3)CC2)C1c1cccc(C(F)(F)F)c1 (stereo not drawn) [Example 32, 2-[4-(4,4'-dimethylbenzhydryl)-1-piperazinyl]ethyl ethyl 2,6-dimethyl-4-(3-trifluoromethylphenyl)-1,4-dihydropyridine-3,5-dicarboxylate]
  Change in blood pressure 1 hr. after treatment: -46 mmHg
  Change in blood pressure 5 hrs. after treatment: -48 mmHg
  Duration of antihypertensive effect: 8 to 24 h

## CCOC(=O)C1=C(C)NC(C)=C(C(=O)OCCN2CCN(C(c3ccc(C)cc3)c3ccc(C)cc3)CC2)C1c1cccc(Cl)c1 (stereo not drawn) [Example 33, 2-[4-(4,4'-dimethylbenzhydryl)-1-piperazinyl]ethyl ethyl 4-(3-chlorophenyl)-2,6-dimethyl-1,4-dihydropyridine-3,5-dicarboxylate]
  Change in blood pressure 1 hr. after treatment: -51 mmHg
  Change in blood pressure 5 hrs. after treatment: -60 mmHg
  Duration of antihypertensive effect: 8 to 24 h

## COC(=O)C1=C(C)NC(C)=C(C(=O)OCCCN2CCN(C(c3ccccc3)c3ccccc3)CC2)C1c1cccc(Cl)c1 (stereo not drawn) [Example 38, 3-(4-benzhydryl-1-piperazinyl)propyl methyl 4-(3-chlorophenyl)-2,6-dimethyl-1,4-dihydropyridine-3,5-dicarboxylate]
  Change in blood pressure 1 hr. after treatment: -50 mmHg
  Change in blood pressure 5 hrs. after treatment: -42 mmHg
  Duration of antihypertensive effect: 8 to 24 h

## CCOC(=O)C1=C(C)NC(C)=C(C(=O)OCCN2CCN(c3ccc(F)cc3)CC2)C1c1cccc([N+](=O)[O-])c1 (stereo not drawn) [Example 41, ethyl 2-[4-(4-fluorophenyl)-1-piperazinyl]ethyl 2,6-dimethyl-4-(3-nitrophenyl)-1,4-dihydropyridine-3,5-dicarboxylate]
  Change in blood pressure 1 hr. after treatment: -55 mmHg
  Change in blood pressure 5 hrs. after treatment: -67 mmHg
  Duration of antihypertensive effect: ca. 24 hrs.

## COC(=O)C1=C(C)NC(C)=C(C(=O)OCCN2CCN(c3ccc(F)cc3)CC2)C1c1cccc(Cl)c1Cl (stereo not drawn) [Example 43, 2-[4-(4-fluorophenyl)-1-piperazinyl]ethyl methyl 4-(2,3-dichlorophenyl)-2,6-dimethyl-1,4-dihydropyridine-3,5-dicarboxylate]
  Change in blood pressure 1 hr. after treatment: -54 mmHg
  Change in blood pressure 5 hrs. after treatment: -44 mmHg
  Duration of antihypertensive effect: 8 to 24 h

## COC(=O)C1=C(C)NC(C)=C(C(=O)OCCN2CCN(c3ccccc3Cl)CC2)C1c1cccc([N+](=O)[O-])c1 (stereo not drawn) [Example 44, 2-[4-(2-chlorophenyl)-1-piperazinyl]ethyl methyl 2,6-dimethyl-4-(3-nitrophenyl)-1,4-dihydropyridine-3,5-dicarboxylate]
  Change in blood pressure 1 hr. after treatment: -44 mmHg
  Change in blood pressure 5 hrs. after treatment: -22 mmHg
  Duration of antihypertensive effect: 8 to 24 h

## COC(=O)C1=C(C)NC(C)=C(C(=O)OCCN2CCN(c3ccc(Cl)cc3)CC2)C1c1cccc([N+](=O)[O-])c1 (stereo not drawn) [Example 45, 2-[4-(4-chlorophenyl)-1-piperazinyl]ethyl methyl 2,6-dimethyl-4-(3-nitrophenyl)-1,4-dihydropyridine-3,5-dicarboxylate]
  Change in blood pressure 1 hr. after treatment: -57 mmHg
  Change in blood pressure 5 hrs. after treatment: -42 mmHg
  Duration of antihypertensive effect: 8 to 24 h

## COC(=O)C1=C(C)NC(C)=C(C(=O)OCCN2CCN(c3cccc(Cl)c3)CC2)C1c1cccc(Cl)c1Cl (stereo not drawn) [Example 46]
  Change in blood pressure 1 hr. after treatment: -44 mmHg
  Change in blood pressure 5 hrs. after treatment: -43 mmHg
  Duration of antihypertensive effect: 8 to 24 h

## COC(=O)C1=C(C)NC(C)=C(C(=O)OCCN2CCN(c3ccc(Cl)cc3)CC2)C1c1cccc(Cl)c1 (stereo not drawn) [Example 50, 2-[4-(4-chlorophenyl)-1-piperazinyl]ethyl methyl 4-(3-chlorophenyl)-2,6-dimethyl-1,4-dihydropyridine-3,5-dicarboxylate]
  Change in blood pressure 1 hr. after treatment: -58 mmHg
  Change in blood pressure 5 hrs. after treatment: -37 mmHg
  Duration of antihypertensive effect: 8 to 24 h

## COC(=O)C1=C(C)NC(C)=C(C(=O)OCCN2CCN(c3ccccc3C)CC2)C1c1cccc([N+](=O)[O-])c1 (stereo not drawn) [Example 51, methyl 2-[4-(2-methylphenyl)-1-piperazinyl]ethyl 2,6-dimethyl-4-(3-nitrophenyl)-1,4-dihydropyridine-3,5-dicarboxylate]
  Change in blood pressure 1 hr. after treatment: -69 mmHg
  Change in blood pressure 5 hrs. after treatment: -54 mmHg
  Duration of antihypertensive effect: 8 to 24 h

## COC(=O)C1=C(C)NC(C)=C(C(=O)OCCN2CCN(c3ccccc3C)CC2)C1c1cccc(Cl)c1 (stereo not drawn) [Example 52, methyl 2-[4-(2-methylphenyl)-1-piperazinyl]ethyl 4-(3-chlorophenyl)-2,6-dimethyl-1,4-dihydropyridine-3,5-dicarboxylate]
  Change in blood pressure 1 hr. after treatment: -54 mmHg
  Change in blood pressure 5 hrs. after treatment: -14 mmHg
  Duration of antihypertensive effect: ca. 8 hrs.
